Experimental data from US20090104297A1, “HERBAL COMPOSITION FOR TREATMENT OF INFECTIONS CAUSED BY DERMATOPHYTES” (Piramal Life Sciences Limited, priority 2006, published 2009).
In brackets after ≈: the same amount, converted by molar mass. Read-outs that look alike come from different tables or passages of the source.

Experiments:
[1] = test system: Trichophyton mentagrophytes; assay: In vitro susceptibility testing (MIC) by macro broth dilution method (CLSI M-38); format: cell-based; conditions: for MIC: Trichophyton mentagrophytes
Description: (§1) In vitro susceptibility testing (Minimum Inhibitory Concentration) by macro broth dilution method—(CLSI method-M-38) was carried out as described in literature.
(§2) Reference method for broth dilution antifungal susceptibility testing of yeasts-Approved standard. NCCLS document M27-A. National Committee for Clinical Laboratory Standards, Wayne, Pa.;
(§3) Reference method for broth dilution antifungal susceptibility testing of filamentous fungi-Approved standard. NCCLS document M38-A. National Committee for Clinical Laboratory Standards, Wayne, Pa.
(§4) Candida albicans, Trichophyton mentagrophytes and Micropsporum gypseum were used as test organisms.
(§5) RPMI 1640 (Sigma) with L-glutamine but without sodium bicarbonate and buffered at pH 7.0 with 3-(N-morpholino) propanesulfonic acid monosodium salt (MOPS), was the medium used for broth macro dilution susceptibility testing.
(§6) The extract of example 1, compound 1 and ketoconazole as standard.
(§7) The samples were prepared in methanol at 100 times the final concentration, followed by further dilutions (1:10) in RPMI 1640 medium to yield ten times the final strength required for the test. Purified component was also diluted in the same manner in methanol alone. Aliquots (0.1 ml) of each extract were dispensed into tubes. The final concentrations of extract ranged from 100-10 μg/ml.
(§8) The cultures were grown on PDA agar slants at 28° C. for 7 days. The growth was covered with sterile saline and scraped to get a growth suspension. The resulting mixture of conidia or sporangiospores and hypal fragments was transferred to a sterile test tube. The heavy particles were allowed to settle and upper homogenous suspension was transferred to another tube. These suspensions were adjusted to an optical density that ranged from 0.09 to 0.11 (80 to 82% transmittance). These stock suspensions were further diluted 1:100 with medium to obtain test inoculum (0.4×10^4 to 5×10^4 cfu/ml).
(§9) Finally the tubes were inoculated with 0.1 ml of sample dilutions and 0.9 ml of the above-prepared inoculum. […] Growth control tube received only diluent without sample. […]

Micropsporum gypseum = assay: as above; format: cell-based, Microsporum gypseum; conditions: for MIC: Nannizzia gypsea
Description: as §1, §2, §3, §4, §5, §6, §7, §8, §9

Candida albicans = assay: as above; format: cell-based
Description: as §1, §2, §3, §4, §5, §6
as §7, with “μg/ml. […]” for “μg/ml.”

[2] = test system: Trichophyton mentagrophytes; assay: Agar well diffusion method, zone of inhibition; format: cell-based; conditions: preparative HPLC fractions; concentration not given
Description: The given extracts were tested against a panel of microorganisms, including Candida albicans 10231, Microsporum gypseum and Trichophyton mentagrophytes.
The strains were cultured overnight at 30° C. in Sabouraud dextrose agar. Colonies from subcultures were suspended in saline and vortexed to give a transmittance of 75-80% at 530 nm (T530 nm≈10^8 cfu/ml). Predecided volume of inoculum was mixed with molten agar at 40° C. and poured into sterile petri plates. Plates were allowed to set and solidify. Then wells (6 mm in diameter) were cut from the agar and 0.05 ml of extract solution was delivered into them. After incubation for 48 hours, at 28° C., all plates were examined for any zones of growth inhibition, and the diameters of these zones were measured in millimeters.
The stock solutions of 10 mg/ml of extracts of example 1 was prepared by suspending extract in methanol and sonicating for 10 seconds. Further dilutions were made to get a concentration range of 5, 2 and 1 mg/ml.
Preparative TLC samples were analyzed for the activity by Agar well diffusion method as described in example 2.
All preparative HPLC fractions were analyzed for activity by Agar well diffusion method as described in example 2.

Row | MIC ([1]; macro broth dilution, RPMI 1640 pH 7.0, 28° C. for 48 hours, 100% growth inhibition, read-out: MIC values, Trichophyton mentagrophytes) [mg/L] | MIC (Micropsporum gypseum; macro broth dilution, RPMI 1640 pH 7.0, 28° C. for 48 hours, 100% growth inhibition, read-out: MIC values, Microsporum gypseum) [mg/L] | MIC (Candida albicans; macro broth dilution, RPMI 1640 pH 7.0, 37° C. for 24 hours, 100% growth inhibition, read-out: MIC values, Candida ablicans) [mg/L] | Structure (SMILES) | MIC ([1]; 48 h, pH 7, read-out: MIC values, Trichophyton mentagrophytes) [mg/L] | MIC against dermatophytes versus ketoconazole (conclusion of Table 3), Trichophyton mentagrophytes ([1]; macro broth dilution) | MIC (Micropsporum gypseum; 48 h, pH 7, read-out: MIC values, Microsporum gypseum) [mg/L] | MIC against dermatophytes versus ketoconazole (conclusion of Table 3), Microsporum gypseum (Micropsporum gypseum; macro broth dilution) | MIC (Candida albicans; 24 h, pH 7, read-out: MIC values, Candida ablicans) [mg/L] | zone of inhibition (tested against Trichophyton mentagrophytes culture) [2] [mm]
1 |  |  |  | COc1cc2[nH]c3ccccc3c2cc1C [Compound 1, 2-methoxy-3-methyl-9H-carbazole] | 6 (≈ 28.4 µM) | Conclusion: MIC of compound 1 against dermatophytes is comparable with ketoconazole. | 4 (≈ 18.9 µM) | Conclusion: MIC of compound 1 against dermatophytes is comparable with ketoconazole. | 30 (≈ 142 µM) | > 25
2 | 4 (≈ 7.53 µM) | 4 (≈ 7.53 µM) | 5 (≈ 9.41 µM) | CC(=O)N1CCN(c2ccc(OCC3COC(Cn4ccnc4)(c4ccc(Cl)cc4Cl)O3)cc2)CC1 (stereo not drawn) [Ketoconazole, ketoconazole, reference compound] |  |  |  |  |  | 
